From the supplement of paper PMC10307832

Legend:
Experiment in all cases: relative viability (nuclei count vs DMSO), 5 days (fraction); higher = more cells survive
[1] = test system: NCI-H1395
Procedure, shortened: (§1)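 Lung cancer cell lines were seeded in 1536-well plates and dosed by pin tool the next day, with either a single drug or a fixed anchor-drug dose combined with five library-drug doses (not always all listed) spaced in √10 steps. Five days later, one step fixed the cells and stained their nuclei (final 0.05% Triton X-100, 1% formaldehyde, 1 ug/ml Hoechst), and nuclei were counted on 4× images. Relative viability is the nuclei count in treated wells divided by the count in vehicle wells, and each value is the median of duplicate plates.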

[2] = test system: COR-L 105
Procedure, shortened: as §1

[3] = test system: NCI-H23
Procedure, shortened: as §1

[4] = test system: SW 1573
Procedure, shortened: as §1

[5] = test system: NCI-H1792
Procedure, shortened: as §1

[6] = test system: EMC-BAC-2
Procedure, shortened: as §1

[7] = test system: NCI-H1355
Procedure, shortened: as §1

[8] = test system: NCI-H1755
Procedure, shortened: as §1

[9] = test system: NCI-H2228
Procedure, shortened: as §1

[10] = test system: NCI-H460
Procedure, shortened: as §1

[11] = test system: LCLC-103H
Procedure, shortened: as §1

[12] = test system: SK-LU-1
Procedure, shortened: as §1

[13] = test system: NCI-H1915
Procedure, shortened: as §1

[14] = test system: NCI-H2009
Procedure, shortened: as §1

[15] = test system: HARA
Procedure, shortened: as §1

[16] = test system: HCC-366
Procedure, shortened: as §1

[17] = test system: NCI-H727
Procedure, shortened: as §1

[18] = test system: NCI-H1437
Procedure, shortened: as §1

[19] = test system: A-427
Procedure, shortened: as §1

[20] = test system: HCC-827
Procedure, shortened: as §1

[21] = test system: CAL-12T
Procedure, shortened: as §1

[22] = test system: NCI-H1975
Procedure, shortened: as §1

[23] = test system: HOP-62
Procedure, shortened: as §1

Compound: CC1(C)CCC(c2ccc(Cl)cc2)=C(CN2CCN(c3ccc(C(=O)NS(=O)(=O)c4ccc(N[C@H](CCN5CCOCC5)CSc5ccccc5)c(S(=O)(=O)C(F)(F)F)c4)cc3)CC2)C1 [Navitoclax] + Cc1nc(NC(=O)N2CCC[C@H]2C(N)=O)sc1-c1ccnc(C(C)(C)C(F)(F)F)c1 [Alpelisib] (partner 2 µM)
- relative viability ([1]; first compound 0.005 µM): 1.05
- relative viability ([1]; first compound 0.01581 µM): 1.26
- relative viability ([1]; first compound 0.05 µM): 1.2
- relative viability ([1]; first compound 0.1581 µM): 1.19
- relative viability ([1]; first compound 0.5 µM): 1.12
- relative viability ([2]; first compound 0.005 µM): 0.878
- relative viability ([2]; first compound 0.01581 µM): 1.22
- relative viability ([2]; first compound 0.05 µM): 0.989
- relative viability ([2]; first compound 0.1581 µM): 1.07
- relative viability ([2]; first compound 0.5 µM): 0.978
- relative viability ([3]; first compound 0.005 µM): 0.649
- relative viability ([3]; first compound 0.01581 µM): 0.679
- relative viability ([3]; first compound 0.05 µM): 0.676
- relative viability ([3]; first compound 0.1581 µM): 0.633
- relative viability ([3]; first compound 0.5 µM): 0.598
- relative viability ([4]; first compound 0.005 µM): 0.635
- relative viability ([4]; first compound 0.01581 µM): 0.836
- relative viability ([4]; first compound 0.05 µM): 0.917
- relative viability ([4]; first compound 0.1581 µM): 0.796
- relative viability ([4]; first compound 0.5 µM): 0.718
- relative viability ([5]; first compound 0.005 µM): 0.735
- relative viability ([5]; first compound 0.01581 µM): 0.878
- relative viability ([5]; first compound 0.05 µM): 0.534
- relative viability ([5]; first compound 0.1581 µM): 0.657
- relative viability ([5]; first compound 0.5 µM): 0.692
- relative viability ([6]; first compound 0.005 µM): 0.733
- relative viability ([6]; first compound 0.01581 µM): 0.764
- relative viability ([6]; first compound 0.05 µM): 0.745
- relative viability ([6]; first compound 0.1581 µM): 0.69
- relative viability ([6]; first compound 0.5 µM): 0.759
- relative viability ([7]; first compound 0.005 µM): 0.833
- relative viability ([7]; first compound 0.01581 µM): 0.934
- relative viability ([7]; first compound 0.05 µM): 0.846
- relative viability ([7]; first compound 0.1581 µM): 0.74
- relative viability ([7]; first compound 0.5 µM): 0.782
- relative viability ([8]; first compound 0.005 µM): 0.903
- relative viability ([8]; first compound 0.01581 µM): 1
- relative viability ([8]; first compound 0.05 µM): 0.906
- relative viability ([8]; first compound 0.1581 µM): 0.904
- relative viability ([8]; first compound 0.5 µM): 0.947
- relative viability ([9]; first compound 0.005 µM): 0.745
- relative viability ([9]; first compound 0.01581 µM): 0.725
- relative viability ([9]; first compound 0.05 µM): 0.602
- relative viability ([9]; first compound 0.1581 µM): 0.688
- relative viability ([9]; first compound 0.5 µM): 0.819
- relative viability ([10]; first compound 0.005 µM): 0.5
- relative viability ([10]; first compound 0.01581 µM): 0.533
- relative viability ([10]; first compound 0.05 µM): 0.639
- relative viability ([10]; first compound 0.1581 µM): 0.511
- relative viability ([10]; first compound 0.5 µM): 0.46
- relative viability ([11]; first compound 0.005 µM): 0.948
- relative viability ([11]; first compound 0.01581 µM): 1.13
- relative viability ([11]; first compound 0.05 µM): 0.97
- relative viability ([11]; first compound 0.1581 µM): 0.919
- relative viability ([11]; first compound 0.5 µM): 0.963
- relative viability ([12]; first compound 0.005 µM): 0.979
- relative viability ([12]; first compound 0.01581 µM): 1.12
- relative viability ([12]; first compound 0.05 µM): 1.23
- relative viability ([12]; first compound 0.1581 µM): 0.906
- relative viability ([12]; first compound 0.5 µM): 0.867
- relative viability ([13]; first compound 0.005 µM): 1.08
- relative viability ([13]; first compound 0.01581 µM): 1.06
- relative viability ([13]; first compound 0.05 µM): 1.01
- relative viability ([13]; first compound 0.1581 µM): 0.94
- relative viability ([13]; first compound 0.5 µM): 1
- relative viability ([14]; first compound 0.005 µM): 1.08
- relative viability ([14]; first compound 0.01581 µM): 1.16
- relative viability ([14]; first compound 0.05 µM): 1.15
- relative viability ([14]; first compound 0.1581 µM): 1.2
- relative viability ([14]; first compound 0.5 µM): 1.21
- relative viability ([15]; first compound 0.005 µM): 0.657
- relative viability ([15]; first compound 0.01581 µM): 1.05
- relative viability ([15]; first compound 0.05 µM): 0.622
- relative viability ([15]; first compound 0.1581 µM): 0.881
- relative viability ([15]; first compound 0.5 µM): 0.898
- relative viability ([16]; first compound 0.005 µM): 0.391
- relative viability ([16]; first compound 0.01581 µM): 0.588
- relative viability ([16]; first compound 0.05 µM): 0.132
- relative viability ([16]; first compound 0.1581 µM): 0.338
- relative viability ([16]; first compound 0.5 µM): 0.361
- relative viability ([17]; first compound 0.005 µM): 0.5
- relative viability ([17]; first compound 0.01581 µM): 0.619
- relative viability ([17]; first compound 0.1581 µM): 0.526
- relative viability ([17]; first compound 0.5 µM): 0.434
- relative viability ([18]; first compound 0.005 µM): 0.885
- relative viability ([18]; first compound 0.01581 µM): 1.04
- relative viability ([18]; first compound 0.05 µM): 0.98
- relative viability ([18]; first compound 0.1581 µM): 1.05
- relative viability ([18]; first compound 0.5 µM): 0.871
- relative viability ([19]; first compound 0.005 µM): 1.01
- relative viability ([19]; first compound 0.01581 µM): 1.06
- relative viability ([19]; first compound 0.05 µM): 0.908
- relative viability ([19]; first compound 0.1581 µM): 1.14
- relative viability ([19]; first compound 0.5 µM): 1.04
- relative viability ([20]; first compound 0.005 µM): 1.07
- relative viability ([20]; first compound 0.01581 µM): 1.1
- relative viability ([20]; first compound 0.05 µM): 0.766
- relative viability ([20]; first compound 0.1581 µM): 1.02
- relative viability ([20]; first compound 0.5 µM): 1.01
- relative viability ([21]; first compound 0.005 µM): 1.08
- relative viability ([21]; first compound 0.01581 µM): 1.28
- relative viability ([21]; first compound 0.05 µM): 1.31
- relative viability ([21]; first compound 0.1581 µM): 1.25
- relative viability ([21]; first compound 0.5 µM): 1.11
- relative viability ([22]; first compound 0.005 µM): 0.639
- relative viability ([22]; first compound 0.01581 µM): 0.732
- relative viability ([22]; first compound 0.05 µM): 0.752
- relative viability ([22]; first compound 0.1581 µM): 0.653
- relative viability ([22]; first compound 0.5 µM): 0.578
- relative viability ([23]; first compound 0.005 µM): 0.781
- relative viability ([23]; first compound 0.01581 µM): 1.06
- relative viability ([23]; first compound 0.05 µM): 0.869
- relative viability ([23]; first compound 0.1581 µM): 0.871
- relative viability ([23]; first compound 0.5 µM): 0.785
